Data reported in ChEMBL document CHEMBL1143044, “The isolation of secondary metabolites and in vitro potent anti-cancer activity of clerodermic acid from Enicosanthum membranifolium” (Bioorg Med Chem, 2007).
Activity calls are given as the source filed them. No cut-off for these calls is given here.

Key:
Type in all cases: functional, cell-based
HL-60 [1] = assay: Induction of apoptosis in human HL60 cells assessed as nucleosomal DNA fragmentation after 24 hrs
HL-60 [2] = assay: Induction of apoptosis in human HL60 cells at 200 uM in presence of 100 uM caspase inhibitor ZVADFMK by Trypan blue exclusion test
HL-60 [3] = assay: Growth inhibition of human HL60 cells by Trypan blue exclusion test

- IC50 (HL-60 [3]): 68 µM
Compound: C[C@@H]1CC[C@@]2(C)C(C(=O)O)=CCCC2[C@@]1(C)CCC1=CC(=O)OC1 (stereo partly drawn) [CLERODERMIC ACID]
- Activity (HL-60 [1]): Active
- Activity (HL-60 [2]): Active
